“And” between values parts separate entries of the source, which are not always exact repeats. Equal entries are not always repeated. Where two headings read alike, the source gives them in different places.
Tests used:
[1] = target: T1, human calcium-independent GVIA iPLA2 (Homo sapiens, UniProt O60733); assay: radioactivity-based mixed micelle assay, GVIA iPLA2; type: biochemical
T1 sequence (O60733 1-806): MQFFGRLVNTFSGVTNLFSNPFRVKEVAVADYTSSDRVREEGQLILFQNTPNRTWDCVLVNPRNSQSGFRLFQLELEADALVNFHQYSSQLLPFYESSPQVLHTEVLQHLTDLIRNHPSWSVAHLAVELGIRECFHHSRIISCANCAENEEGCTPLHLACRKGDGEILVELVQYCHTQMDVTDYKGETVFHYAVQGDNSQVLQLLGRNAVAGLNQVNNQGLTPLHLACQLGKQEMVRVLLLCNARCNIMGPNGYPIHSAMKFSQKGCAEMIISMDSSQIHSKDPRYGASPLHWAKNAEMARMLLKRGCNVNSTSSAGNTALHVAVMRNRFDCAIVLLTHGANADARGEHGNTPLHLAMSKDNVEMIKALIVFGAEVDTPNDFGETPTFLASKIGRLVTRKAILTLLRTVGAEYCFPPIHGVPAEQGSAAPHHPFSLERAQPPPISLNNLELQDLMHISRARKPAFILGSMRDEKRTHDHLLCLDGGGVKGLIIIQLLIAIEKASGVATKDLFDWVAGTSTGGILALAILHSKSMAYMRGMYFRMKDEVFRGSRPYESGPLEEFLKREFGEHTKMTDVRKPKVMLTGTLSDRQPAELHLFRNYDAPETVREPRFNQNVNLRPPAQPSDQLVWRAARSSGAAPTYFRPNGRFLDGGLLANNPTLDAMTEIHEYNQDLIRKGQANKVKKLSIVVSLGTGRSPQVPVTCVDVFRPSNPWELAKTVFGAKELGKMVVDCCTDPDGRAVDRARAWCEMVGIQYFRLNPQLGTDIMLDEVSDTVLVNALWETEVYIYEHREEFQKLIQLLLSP
Protocol: (§1) All synthesized thiazolyl ketones were tested for their in vitro inhibitory activity on recombinant human cPLA2α and selectivity over human calcium-independent GVIA iPLA2 and secreted GV sPLA2 using our previously described group-specific radioactivity-based mixed micelle assays. The inhibition results are presented either as per cent inhibition or as XI(50) values in Table 1. […] The XI(50) is defined as the mole fraction of the inhibitor in the total substrate interface required to inhibit the enzyme activity by 50%. For comparison purposes, previously published data for the inhibitor GK470[19] are included. […] Inhibitors were initially screened at 0.091 mol fraction (5 μL of 5 mM inhibitor in DMSO) in substrate (495 μL) in technical triplicates. […] The XI(50) value and stdev values reported are for the entire curve. This analysis was performed in GraphPad Prism v6.

[2] = target: T2, recombinant human cPLA2α (Homo sapiens, UniProt P47712); assay: radioactivity-based mixed micelle assay, cPLA2α; type: biochemical; conditions: for cPLA2α XI(50): XI(50) ± stdev, mole fraction of inhibitor in total substrate interface for 50% inhibition; for cPLA2α inhibition, Xi50 dose-response: replicates; for cPLA2 % inhibition at 0.091 mole fraction, average: average of triplicates; for times more potent than GK470: cPLA2α XI(50) relative to GK470
T2 sequence (P47712 1-749): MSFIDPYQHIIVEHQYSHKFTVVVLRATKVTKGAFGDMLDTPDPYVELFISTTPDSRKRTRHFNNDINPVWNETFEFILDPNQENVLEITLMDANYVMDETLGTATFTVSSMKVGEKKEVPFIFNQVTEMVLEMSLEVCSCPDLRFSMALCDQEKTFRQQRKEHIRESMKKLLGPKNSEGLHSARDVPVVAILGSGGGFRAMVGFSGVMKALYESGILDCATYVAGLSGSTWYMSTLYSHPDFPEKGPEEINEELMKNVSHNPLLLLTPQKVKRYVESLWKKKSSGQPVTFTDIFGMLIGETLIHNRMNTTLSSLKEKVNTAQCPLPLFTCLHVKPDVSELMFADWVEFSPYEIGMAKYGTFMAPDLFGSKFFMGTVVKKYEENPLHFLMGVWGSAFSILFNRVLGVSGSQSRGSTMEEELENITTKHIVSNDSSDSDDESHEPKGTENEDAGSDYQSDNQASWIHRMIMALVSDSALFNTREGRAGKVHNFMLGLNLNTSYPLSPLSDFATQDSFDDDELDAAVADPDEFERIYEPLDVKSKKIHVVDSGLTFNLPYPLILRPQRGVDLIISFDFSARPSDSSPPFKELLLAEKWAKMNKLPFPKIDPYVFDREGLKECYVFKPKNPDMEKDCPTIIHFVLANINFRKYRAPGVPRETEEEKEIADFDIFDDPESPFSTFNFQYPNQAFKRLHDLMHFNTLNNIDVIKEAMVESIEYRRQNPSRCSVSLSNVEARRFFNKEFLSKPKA
Protocol: as §1

[3] = 0.091 mole fraction, read-out: GVIA iPLA2 % Inhib
[4] = average of triplicates, read-out: iPLA2 % inhibition at 0.091 mole fraction, average
[5] = individual technical replicate, read-out: iPLA2 % inhibition at 0.091 mole fraction
[6] = 0.091 mole fraction, read-out: cPLA2α % Inhib
[7] = individual technical replicate, read-out: cPLA2 % inhibition at 0.091 mole fraction

Row | inhibition at 0.091 mole fraction [1, 3] [%] | inhibition at 0.091 mole fraction [1, 4] [%] | inhibition at 0.091 mole fraction [1, 5] [%] | inhibition at 0.091 mole fraction [2, 6] [%] | inhibition at 0.091 mole fraction [2, 7] [%] | cPLA2α inhibition, Xi50 dose-response ([2]; Log [inhibitor] (mole%) -1.00) | cPLA2α inhibition, Xi50 dose-response ([2]; Log [inhibitor] (mole%) -1.22) | cPLA2 % inhibition at 0.091 mole fraction, average [2] [%] | times more potent than GK470 [2] | cPLA2α inhibition, Xi50 dose-response ([2]; Log [inhibitor] (mole%) -4.30) | cPLA2α inhibition, Xi50 dose-response ([2]; Log [inhibitor] (mole%) -3.00) | SMILES | cPLA2α XI(50) [2]
1 | 54 | 53.6 | 54.3 | 94 | 94.2 |  |  |  |  |  |  | COC(=O)c1csc(C(=O)C(C)Oc2ccc(Oc3ccccc3)cc2)n1 (stereo not drawn) [GK428] | 0.0038 mole fraction and 0.0038 ± 0.0001 mole fraction
2 | 0 | 0 | 0 | 100 | 99.5 | 102.2 | 99.7 | 100.3 |  |  |  | COC(=O)c1csc(C(=O)COc2ccc(Oc3ccc(F)cc3)cc2)n1 [GK440] | 0.0010 mole fraction and 0.0010 ± 0.0001 mole fraction
3 | 7.5 | 7.5 |  | 98 | 98.4 |  |  |  | 7–11 | 14.10 |  | CCCCCCSc1ccc(OCC(=O)c2nc(C(=O)OC)cs2)cc1 [GK427] | 0.0010 mole fraction and 0.0010 ± 0.0001 mole fraction
4 | 0 | 0 | 0 | 50 | 54 |  |  |  |  |  |  | CCCCCCOc1ccc(SCC(=O)c2nc(C(=O)OC)cs2)cc1 [GK419] | 
5 | 67 | 66.9 | 68.3 | 97 | 96 |  |  | 96.6 |  |  | 33.0 | CCCCCCCOc1ccc(OC(C)C(=O)c2nc(C(=O)OC)cs2)cc1 (stereo not drawn) [GK439] | 0.0029 mole fraction and 0.0029 ± 0.0004 mole fraction
6 | 67 | 67.1 | 73.4 | 98 | 96.2 |  |  | 97.5 | 7–11 |  |  | CCCCCCSc1ccc(OC(C)C(=O)c2nc(C(=O)OC)cs2)cc1 (stereo not drawn) [GK449] | 0.0017 mole fraction and 0.0017 ± 0.0005 mole fraction

The next lines start with the compound.

Row | SMILES | inhibition at 0.091 mole fraction [1, 3] [%] | inhibition at 0.091 mole fraction [1, 4] [%] | inhibition at 0.091 mole fraction [1, 5] [%] | inhibition at 0.091 mole fraction [2, 6] [%] | inhibition at 0.091 mole fraction [2, 7] [%] | cPLA2α inhibition, Xi50 dose-response ([2]; Log [inhibitor] (mole%) -1.00) | cPLA2α inhibition, Xi50 dose-response ([2]; Log [inhibitor] (mole%) -1.22) | cPLA2 % inhibition at 0.091 mole fraction, average [2] [%] | times more potent than GK470 [2] | cPLA2α inhibition, Xi50 dose-response ([2]; Log [inhibitor] (mole%) -4.30) | cPLA2α inhibition, Xi50 dose-response ([2]; Log [inhibitor] (mole%) -3.00) | cPLA2α XI(50) [2]
7 | CCCCCCCOc1ccc(OCC(=O)c2nc(C(=O)OC)cs2)cc1 [GK420] | 0 | 0 | 0 | 98 | 97.2 |  |  |  | 7–11 |  |  | 0.0016 mole fraction and 0.0016 ± 0.0002 mole fraction
8 | COC(=O)c1csc(C(=O)COc2ccc(Oc3ccccc3)cc2)n1 [GK403] | 34 | 34.3 | 33.6 | 95 | 95.1 |  |  | 95.4 |  |  |  | 0.0014 mole fraction and 0.0014 ± 0.0001 mole fraction
9 | CCCCCCCCc1ccc(OC(C)C(=O)c2nc(C(=O)OC)cs2)cc1 (stereo not drawn) [GK402] | 61 | 60.8 | 59.9 | 79 | 81 |  |  | 79.2 |  |  |  | 
10 | CCCCCCCCc1ccc(OCC(=O)c2nc(C(=O)OCC)cs2)cc1 [GK401] | 40 | 39.8 | 41.2 | 89 | 88.4 |  |  | 88.7 |  |  |  | 
